The conditions of data set [1]: cc_pd bond, XPhos Pd G2/K3PO4, THF/water.
Data set [2] has as its target T1, human GLP-1R (Homo sapiens, UniProt P43220). As to the kind of experiment: Human GLP-1 Receptor HEK293 cell cAMP assay, 104 fmol/mg GLP-1R expression density. Format: cell-based. Details: expressed in transfected cells; host or cells: HEK293 clonal cell line. The following applies: HEK293 cell line with 104 fmol/mg expression density of GLP-1R; for EC50: geometric mean, read-out: EC50 nM (SEM, n), intracellular cAMP response, relative EC50; for Emax: read-out: Emax % (SEM, n), intracellular cAMP response. The method, boiled down: (§1)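 HEK293 clonal lines expressing human GLP-1R, 20-point compound curves, 30 min at 37° C in DMEM with 0.1% casein, 250 μM IBMX, 0.5% DMSO. cAMP by HTRF, converted via standard curve to % of maximal human GLP-1(7-36)NH2 response; relative EC50 and Emax from four-parameter logistic fit.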

Data set [3] concerns the target T1, human GLP-1R. As to the kind of experiment: Human GLP-1 Receptor HEK293 cell cAMP assay, 581 fmol/mg GLP-1R expression density. Details: expressed in transfected cells; host or cells: HEK293 clonal cell line. Format: cell-based. The following applies: HEK293 cell line with 581 fmol/mg expression density of GLP-1R; for EC50: geometric mean, read-out: EC50 nM (SEM, n), intracellular cAMP response, relative EC50; for Emax: read-out: Emax % (SEM, n), intracellular cAMP response. The essentials:
as §1

Where [4] appears, read: percent of maximal response to GLP-1(7-36)NH2, arithmetic mean.

Like-named read-outs stand apart in the source and are kept apart here.

16 compounds from US20240343740A1, “MACROCYCLIC GLUCAGON-LIKE PEPTIDE 1 RECEPTOR AGONISTS” (Eli Lilly and Company, priority 2021, published 2024) can be followed below.

T1 sequence (P43220 24-463): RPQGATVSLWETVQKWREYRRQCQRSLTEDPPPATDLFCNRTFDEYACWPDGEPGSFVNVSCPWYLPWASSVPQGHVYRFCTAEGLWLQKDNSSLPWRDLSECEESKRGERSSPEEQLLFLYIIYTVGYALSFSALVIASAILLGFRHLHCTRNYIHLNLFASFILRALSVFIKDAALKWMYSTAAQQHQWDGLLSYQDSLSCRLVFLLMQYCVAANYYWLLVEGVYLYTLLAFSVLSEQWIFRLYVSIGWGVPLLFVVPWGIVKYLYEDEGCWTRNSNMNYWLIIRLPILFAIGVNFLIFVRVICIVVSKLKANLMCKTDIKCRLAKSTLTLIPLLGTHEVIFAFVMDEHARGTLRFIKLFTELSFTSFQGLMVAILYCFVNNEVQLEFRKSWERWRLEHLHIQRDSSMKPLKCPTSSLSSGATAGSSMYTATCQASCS

Regarding `CCOC(=O)Cc1cc(F)c2cc1CCOCc1cc(C#N)ccc1COc1cccc-2n1`, in data set [1] (from CCOC(=O)Cc1cc(F)c(B2OC(C)(C)C(C)(C)O2)cc1CCOCc1cc(C#N)ccc1COc1cccc(Cl)n1, 14-membered ring, 25.0 mM, 70.0 °C, 0.5 h), the ring closure, isolated yield amounted to 34%.
As for `CCOC(=O)Cc1cc(F)c2cc1CCOCc1cc(ccc1Cl)COc1cccc-2n1`, the ring closure, isolated yield in data set [1] (from CCOC(=O)Cc1cc(F)c(B2OC(C)(C)C(C)(C)O2)cc1CCOCc1cc(COc2cccc(Cl)n2)ccc1Cl, 15-membered ring, 27.0 mM, 60.0 °C, 1.5 h) amounted to 20%.
As for `COCCOc1cc(C(=O)O)cc2c1nc(Cc1cc(F)c3cc1COCc1cc(C#N)ccc1COc1cccc-3n1)n2C[C@@H]1CCO1` [Example 68, (S)-2-((5^4-Cyano-1^6-fluoro-3,7-dioxa-2(2,6)-pyridina-1(1,3),5(1,2)-dibenzenacyclooctaphane-1^4-yl)methyl)-4-(2-methoxyethoxy)-1-(oxetan-2-ylmethyl)-1H-benzo[d]imidazole-6-carboxylic acid], the EC50 at human GLP-1R [2] is 8.72 nM; at human GLP-1R [3], 6.82 nM. Also, the Emax on human GLP-1R [2] (setting [4]) turned out to be 98.5%; at human GLP-1R [3] (setting [4]) it was 115%.
Consider `COc1cc(C(=O)NS(=O)(=O)CC2CC2)cc2c1nc(Cc1cc(C)c3cc1OCCCc1cc(F)ccc1COc1cccc-3n1)n2C[C@@H]1CCO1` [Example 69, (S)—N-((Cyclopropylmethyl)sulfonyl)-2-((5^4-fluoro-1^6-methyl-3,9-dioxa-2(2,6)-pyridina-1(1,3),5(1,2)-dibenzenacyclononaphane-1^4-yl)methyl)-4-methoxy-1-(oxetan-2-ylmethyl)-1H-benzo[d]imidazole-6-carboxamide], for which the EC50 at human GLP-1R [2] is 103 nM; on human GLP-1R [3] it was 59.8 nM. In addition, the Emax at human GLP-1R [2] (setting [4]) was 26.6%; on human GLP-1R [3] (setting [4]), 71.6%.
Turning to `COCCOc1cc(C(=O)O)cc2c1nc(Cc1cc(F)c3cc1COCCc1cc(C#N)cc(F)c1COc1cccc-3n1)n2C[C@@H]1CCO1` [Example 70, (S)-2-((5^4-Cyano-1^6,5^6-difluoro-3,8-dioxa-2(2,6)-pyridina-1(1,3),5(1,2)-dibenzenacyclononaphane-1^4-yl)methyl)-4-(2-methoxyethoxy)-1-(oxetan-2-ylmethyl)-1H-benzo[d]imidazole-6-carboxylic acid], the results for the EC50 at human GLP-1R [2] and at human GLP-1R [3] were 12.6 nM and 3.11 nM, respectively. The maximum response (Emax) at human GLP-1R [2] (setting [4]) came out at 95%; on human GLP-1R [3] (setting [4]), 92.3%.
For the compound `O=C(O)c1ccc2nc(Cc3ccc4cc3OCCCc3cc(-n5ccc(=O)c(F)c5)ccc3COc3cccc-4n3)n(C[C@@H]3CCO3)c2c1` [Example 71, (S)-2-((5^4-(3-Fluoro-4-oxopyridin-1(4H)-yl)-3,9-dioxa-2(2,6)-pyridina-1(1,3),5(1,2)-dibenzenacyclononaphane-1^4-yl)methyl)-1-(oxetan-2-ylmethyl)-1H-benzo[d]imidazole-6-carboxylic acid], the EC50 is 598 nM at human GLP-1R [2] and 138 nM at human GLP-1R [3]. Besides, the Emax on human GLP-1R [2] (setting [4]) is 52.1%; at human GLP-1R [3] (setting [4]) it was 68.4%.
`Cc1cn(-c2ccc3c(c2)CCCOc2cc(ccc2Cc2nc4ccc(C(=O)O)cc4n2C[C@@H]2CCO2)-c2cccc(n2)OC3)cn1` [Example 72, (S)-2-((5^4-(4-Methyl-1H-imidazol-1-yl)-3,9-dioxa-2(2,6)-pyridina-1(1,3),5(1,2)-dibenzenacyclononaphane-1^4-yl)methyl)-1-(oxetan-2-ylmethyl)-1H-benzo[d]imidazole-6-carboxylic acid]: the EC50 on human GLP-1R [2] was determined as 348 nM; on human GLP-1R [3], 92.5 nM. Also, the maximal response (Emax) at human GLP-1R [2] (setting [4]) amounted to 90.4%; at human GLP-1R [3] (setting [4]) it was 106%.
In the case of `O=C(O)c1ccc2nc(Cc3ccc4cc3OCCCc3cc(-n5ccnc5)ccc3COc3cccc-4n3)n(C[C@@H]3CCO3)c2c1` [Example 73, (S)-2-((5^4-(1H-Imidazol-1-yl)-3,9-dioxa-2(2,6)-pyridina-1(1,3),5(1,2)-dibenzenacyclononaphane-1^4-yl)methyl)-1-(oxetan-2-ylmethyl)-1H-benzo[d]imidazole-6-carboxylic acid], the values for the EC50 at human GLP-1R [2] and on human GLP-1R [3] were 68.5 nM and 21.3 nM, respectively. Moreover, the Emax on human GLP-1R [2] (setting [4]) was 84.1%; on human GLP-1R [3] (setting [4]), 106%.
For the compound `O=C(O)c1ccc2nc(Cc3ccc4cc3OCCCc3cc(-n5ccc(=O)cc5)ccc3COc3cccc-4n3)n(C[C@@H]3CCO3)c2c1` [Example 74, (S)-1-(Oxetan-2-ylmethyl)-2-((5^4-(4-oxopyridin-1(4H)-yl)-3,9-dioxa-2(2,6)-pyridina-1(1,3),5(1,2)-dibenzenacyclononaphane-1^4-yl)methyl)-1H-benzo[d]imidazole-6-carboxylic acid], the EC50 stood at 533 nM at human GLP-1R [2] and 155 nM on human GLP-1R [3]. The results for the Emax on human GLP-1R [2] (setting [4]) and on human GLP-1R [3] (setting [4]) were 73.3% and 92.1%, respectively.
Turning to `COCCOc1cc(C(=O)O)cc2c1nc(Cc1cc(F)c3cc1COCc1cc(-c4ccc(=O)n(C)c4)ccc1COc1cccc-3n1)n2C[C@@H]1CCO1` [Example 75, (S)-2-((1^6-Fluoro-5^4-(1-methyl-6-oxo-1,6-dihydropyridin-3-yl)-3,7-dioxa-2(2,6)-pyridina-1(1,3),5(1,2)-dibenzenacyclooctaphane-1^4-yl)methyl)-4-(2-methoxyethoxy)-1-(oxetan-2-ylmethyl)-1H-benzo[d]imidazole-6-carboxylic acid], the EC50 on human GLP-1R [2] was determined as 17.4 nM; on human GLP-1R [3], 6.33 nM. Also, the maximal effect (Emax) at human GLP-1R [2] (setting [4]) came to 71.6%; at human GLP-1R [3] (setting [4]), 93.9%.
Turning to `O=C(O)c1ccc2nc(Cc3ccc4cc3OCCCc3cc(-c5cnn(C6COC6)c5)ccc3COc3cccc-4n3)n(C[C@@H]3CCO3)c2c1` [Example 76, (S)-1-(Oxetan-2-ylmethyl)-2-((5^4-(1-(oxetan-3-yl)-1H-pyrazol-4-yl)-3,9-dioxa-2(2,6)-pyridina-1(1,3),5(1,2)-dibenzenacyclononaphane-1^4-yl)methyl)-1H-benzo[d]imidazole-6-carboxylic acid], the EC50 stood at 359 nM at human GLP-1R [2] and 102 nM on human GLP-1R [3]. Further, the Emax was determined as 78.2% on human GLP-1R [2] (setting [4]) and 99.9% at human GLP-1R [3] (setting [4]).
As to `CN(C)C(=O)c1ccc(-c2ccc3c(c2)CCCOc2cc(ccc2Cc2nc4ccc(C(=O)O)cc4n2C[C@@H]2CCO2)-c2cccc(n2)OC3)cc1` [Example 77, (S)-2-((5^4-(4-(Dimethylcarbamoyl)phenyl)-3,9-dioxa-2(2,6)-pyridina-1(1,3),5(1,2)-dibenzenacyclononaphane-1^4-yl)methyl)-1-(oxetan-2-ylmethyl)-1H-benzo[d]imidazole-6-carboxylic acid], the EC50 came to 724 nM on human GLP-1R [2] and 193 nM on human GLP-1R [3]. The maximal effect (Emax) at human GLP-1R [2] (setting [4]) was determined as 83%; on human GLP-1R [3] (setting [4]), 107%.
On to `Nc1cc(-c2ccc3c(c2)CCCOc2cc(ccc2Cc2nc4ccc(C(=O)O)cc4n2C[C@@H]2CCO2)-c2cccc(n2)OC3)ccn1` [Example 78, (S)-2-((5^4-(2-Aminopyridin-4-yl)-3,9-dioxa-2(2,6)-pyridina-1(1,3),5(1,2)-dibenzenacyclononaphane-1^4-yl)methyl)-1-(oxetan-2-ylmethyl)-1H-benzo[d]imidazole-6-carboxylic acid], for which the figures for the EC50 at human GLP-1R [2] and on human GLP-1R [3] were 248 nM and 95.8 nM, respectively. Further, the results for the Emax on human GLP-1R [2] (setting [4]) and on human GLP-1R [3] (setting [4]) were 74.1% and 99.8%, respectively.
As to `Cn1ccc(-c2ccc3c(c2)CCCOc2cc(ccc2Cc2nc4ccc(C(=O)O)cc4n2C[C@@H]2CCO2)-c2cccc(n2)OC3)cc1=O` [Example 79, (S)-2-((5^4-(1-Methyl-2-oxo-1,2-dihydropyridin-4-yl)-3,9-dioxa-2(2,6)-pyridina-1(1,3),5(1,2)-dibenzenacyclononaphane-1^4-yl)methyl)-1-(oxetan-2-ylmethyl)-1H-benzo[d]imidazole-6-carboxylic acid], the EC50 amounted to 648 nM on human GLP-1R [2] and 369 nM at human GLP-1R [3]. Further, the results for the Emax on human GLP-1R [2] (setting [4]) and at human GLP-1R [3] (setting [4]) were 9.53% and 34.7%, respectively.
`O=C(O)c1ccc2nc(Cc3ccc4cc3OCCCc3cc(-c5ccc(=O)[nH]c5)ccc3COc3cccc-4n3)n(C[C@@H]3CCO3)c2c1` [Example 80, (S)-1-(Oxetan-2-ylmethyl)-2-((5^4-(6-oxo-1,6-dihydropyridin-3-yl)-3,9-dioxa-2(2,6)-pyridina-1(1,3),5(1,2)-dibenzenacyclononaphane-1^4-yl)methyl)-1H-benzo[d]imidazole-6-carboxylic acid]: the half-maximal effective concentration (EC50) on human GLP-1R [2] turned out to be 303 nM; on human GLP-1R [3], 130 nM. Also, the Emax on human GLP-1R [2] (setting [4]) was 56%; at human GLP-1R [3] (setting [4]) it was 84.1%.
In the case of “(S)-2-((5^4-Cyano-1^6,2^3-difluoro-3,8-dioxa-2(2,6)-pyridina-1(1,3),5(1,2)-dibenzenacyclononaphane-1^4-yl)methyl)-4-(2-methoxyethoxy)-1-(oxetan-2-ylmethyl)-1H-benzo[d]imidazole-6-carboxylic acid [Example 60]”, the figures for the EC50 at human GLP-1R [2] and at human GLP-1R [3] were 2.99 nM and 0.938 nM, respectively. Also, the “Emax % (SEM, n), intracellular cAMP response” value is recorded as 87.9% at human GLP-1R [2] (setting [4]) and 109% on human GLP-1R [3] (setting [4]).
